The target in series [1] is T1, human orexin-2 receptor (OX2R) (Homo sapiens, UniProt O43614).
T1 construct: expressed in transfected cells
T1 sequence (O43614 1-444): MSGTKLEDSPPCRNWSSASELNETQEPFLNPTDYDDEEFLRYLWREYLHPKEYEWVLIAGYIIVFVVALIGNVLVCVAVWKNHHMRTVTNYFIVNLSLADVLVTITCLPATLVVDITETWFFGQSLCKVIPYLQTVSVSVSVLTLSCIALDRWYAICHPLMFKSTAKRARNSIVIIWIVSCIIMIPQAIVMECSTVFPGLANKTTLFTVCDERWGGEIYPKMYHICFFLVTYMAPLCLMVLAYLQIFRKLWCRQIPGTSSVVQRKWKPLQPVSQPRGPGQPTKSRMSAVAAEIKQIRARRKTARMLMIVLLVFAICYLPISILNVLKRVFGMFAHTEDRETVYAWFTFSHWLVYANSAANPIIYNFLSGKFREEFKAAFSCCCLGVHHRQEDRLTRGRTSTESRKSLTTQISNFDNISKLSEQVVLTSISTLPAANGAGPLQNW
Description: Human OX2R IP1 assay. Format: cell-based. To be noted: T-Rex CHO cells stably overexpressing human OX2R, IP1 accumulation, 1 hr at 37 degrees C; mean EC50; ∧ = racemic mixture. On the procedure:
T-Rex CHO cells stably overexpressing the human orexin-2 receptor (OX2R) were induced overnight with 1 μg/mL of doxycycline in a T225 flask. 24 hours post induction, cells were lifted with accutase and plated into a 384-well proxy plate at 30,000 cells/well. Cells were then treated with different test compounds in 1× stimulation buffer containing 10 mM Hepes, 1 mM CaCl2), 0.5 mM MgCl2, 4.2 mM KCl, 146 mM NaCl, 5.5 mM glucose, and 50 mM LiCl, pH 7.4, for 1 hr at 37 degrees C. Following incubation, the reaction was terminated by the addition of detection mix, which is composed of IP1-d2 and anti-IP1-cryptate diluted in lysis buffer as well as 1× stimulation buffer. The plates were allowed to incubate for 1 hour at room temperature and were then read in the EnVision® multimode plate reader, measuring inositol phosphate levels.
Cisbio IP1 is a cell-based functional assay quantifying the accumulation of inositol monophosphate (IP), a metabolite released as a result of orexin 2 receptor activation through the phospholipase C-Gq signaling pathway. This is a competitive immunoassay in which the IP1 produced by the cells upon receptor activation competes with the IP1 analog coupled to the d2 fluorophore (acceptor) for binding to an anti-IP1 monoclonal antibody labeled with Eu cryptate (donor). The measured HTRF-FRET based signal is inversely proportional to the IP1 concentration produced.
The EC50 values reported in Table 2 were obtained according to the human OX2R IP1 assay described above. Data are the mean EC50 values ±S.E.M. The compound methyl (2R,3S)-3-((methylsulfonyl)amino)-2-(((cis-4-phenylcyclohexyl)oxy)methyl)-piperidine-1-carboxylate is a reference compound which is disclosed in Example 5 of PCT publication no. WO2017/135306.

A short description of series [2]: Hepatocytes stability assay (human hepatocytes). The note with it: both sexes, cryopreserved hepatocytes, 1 μM test compound, 1×10^6 cell/mL, 37 degrees C, read-out: CLint (μL/min/million cells). Format: in vitro ADME. On the procedure:
(§1) In vitro metabolic stability was assessed using cryopreserved hepatocytes from male Sprague Dawley rats and a pool of 50 mixed gender humans (BioIVT, Baltimore, MD). The incubation mixtures were prepared by mixing 250 μL of pre-warmed KHB (Krebs-Henseleit buffer) containing 2×10^6 cell/mL of hepatocytes with 250 μL of pre-warmed KHB buffer containing 2 μM of test compounds in a 48-well plate, giving a final concentration of 1 μM test compound (0.1% DMSO) and 1×10^6 cell/mL of hepatocytes. The reaction mixture was incubated at 37 degrees C. A 50 μL aliquot of incubation mixture was taken at time points (0, 15, 30, 60, 120 and 240 minutes) and transferred into a 96-well plate containing 300 μL ice-cold acetonitrile (containing 30 ng/mL of labetalol and 10 ng/mL of Naltrexone-d3 as internal standards) and immediately placed in ice to terminate the reaction. Samples were centrifuged, and supernatants were transferred into 96-well plates for liquid chromatography with tandem mass spectrometry (LC-MS/MS) analysis to monitor the depletion of the test compound.
(§2) Data was calculated as percent remaining by assuming zero-minute time point peak area ratio (analyte/IS) as 100% and dividing remaining time point peak area ratios by zero-minute time point peak area ratio. Data were fitted to a first-order decay model to determine half-life. From a plot of log (ln) peak area against time, the slope of the line was determined. Subsequently, half-life (T1/2) and intrinsic clearance (CLint) were calculated using the equations below: Elimination rate constant (k)=(−slope) Half-life (T1/2)min=0.693/k Intrinsic Clearance (CLint) (mL/min/million cells)=(V×0.693)/T1/2 V=incubation volume mL/number of cells The in vitro T1/2 was converted to in vitro intrinsic clearance (CLint,hep) in units of mL/min/kg using the formula shown below:
(§3) [formula] The in vitro intrinsic clearance (CLint,hep) was scaled to in vivo hepatic clearance (CL,hep) using the following equation which was adapted from a well-stirred model.
(§4) [formula] where Q is the liver blood flow and fu is the fraction unbound (assumed to be unity in this case). All parameters used in the calculation are shown below (Table 4).
(§5) The extraction ratio (ER) was calculated by dividing the hepatic clearance of a compound to the liver blood flow. The data reported in Table 5 were obtained according to the human hepatocytes stability assay described above.

In a further series the test system is human hepatocytes. Description: Hepatocytes stability assay (human hepatocytes). Format: in vitro ADME. The note with it: scaled hepatic clearance divided by liver blood flow, fu assumed unity. On the procedure: as §1, §2, §3, §4, §5

Molecules are shown by their SMILES.

By EC50 is commonly meant the concentration at which the effect is half-maximal.

For the molecule `CS(=O)(=O)N[C@H]1CCCN2C(=O)CCOc3ccccc3[C@H]3CC[C@H](CC3)OC[C@@H]12` [Compound 1], the EC50 in series [1] was under 0.1 µM.
`CS(=O)(=O)N[C@H]1CCCN2C(=O)COc3ccccc3[C@H]3CC[C@H](CC3)OC[C@@H]12` [Compound 2]: the EC50 in series [1] was under 0.1 µM.
For `CS(=O)(=O)N[C@H]1CCCN2C(=O)CCCCOc3ccccc3[C@H]3CC[C@H](CC3)OC[C@@H]12` [Compound 3], the EC50 in series [1] is over 1 µM.
As for `CS(=O)(=O)N[C@H]1CCCN2C(=O)CCCOc3ccccc3[C@H]3CC[C@H](CC3)OC[C@@H]12` [Compound 4], in series [1], the EC50 is under 0.1 µM.
Take `CS(=O)(=O)N[C@H]1CCCN2CCCOc3ccccc3C3CCC(CC3)OCC12` (stereo partly drawn) [Compound 5]: the hepatocyte CLint at 1 μM in series [2] came to 63 µL/min/1e6 cells. The “Extraction Ratio (ER)” value in the series on human hepatocytes is on record as 0.90.
On to `CS(=O)(=O)N[C@H]1CCCN2CCCOc3ccccc3[C@H]3CC[C@H](CC3)OC[C@@H]12` [Compound 5], for which, in series [1], the EC50 is over 1 µM.
In the case of `CS(=O)(=O)N[C@H]1CCCN2CCOc3ccccc3[C@H]3CC[C@H](CC3)OC[C@@H]12` [Compound 6], the EC50 in series [1] was under 0.1 µM.
On to `CS(=O)(=O)N[C@H]1CCN2C(=O)COc3ccccc3[C@H]3CC[C@H](CC3)OC[C@@H]12` [Compound 7], for which, in series [1], the EC50 was under 0.1 µM.
`CS(=O)(=O)N[C@H]1CCCN2C(=O)CCc3ccccc3[C@H]3CC[C@H](CC3)OC[C@@H]12` [Compound 10]: the EC50 in series [1] was 0.1 to 1 µM.
`CS(=O)(=O)N[C@H]1CCCN2C(=O)COc3c(F)cccc3[C@H]3CC[C@H](CC3)OC[C@@H]12` [Compound 11]: the EC50 in series [1] was under 0.1 µM.
For `CS(=O)(=O)N[C@H]1CCCN2C(=O)COc3c(F)cc(F)cc3[C@H]3CC[C@H](CC3)OC[C@@H]12` [Compound 12], the EC50 in series [1] is under 0.1 µM.
As for `CS(=O)(=O)N[C@H]1CCCN2CCOc3c(F)cccc3[C@H]3CC[C@H](CC3)OC[C@@H]12` [Compound 13], in series [1], the EC50 lay in the range of 0.1 to 1 µM.
In the case of `CS(=O)(=O)N[C@H]1CCN2C(=O)COc3ncccc3[C@H]3CC[C@H](CC3)OC[C@@H]12` [Compound 18], in series [1], the EC50 lay within 0.1 to 1 µM.
On to `CC1(C)Oc2ccccc2[C@H]2CC[C@H](CC2)OC[C@H]2[C@@H](NS(C)(=O)=O)CCCN2C1=O` [Compound 36], for which, in series [1], the EC50 was under 0.1 µM.
Same read-out and setting: the same measure for `CS(=O)(=O)N[C@H]1CCN2CCOc3ccccc3[C@H]3CC[C@H](CC3)OC[C@@H]12` [Compound 39]: over 1 µM; for `CS(=O)(=O)N[C@H]1CCCN2C(=O)C(F)(F)Oc3ccccc3[C@H]3CC[C@H](CC3)OC[C@@H]12` [Compound 40]: under 0.1 µM.
On to `CS(=O)(=O)N[C@H]1CCCN2CC(F)(F)Oc3ccccc3C3CCC(CC3)OCC12` (stereo partly drawn) [Compound 41], for which, in series [2], the hepatocyte CLint at 1 μM worked out at 60 µL/min/1e6 cells. In the series with human hepatocytes, the “Extraction Ratio (ER)” value was 0.90.
On to `CS(=O)(=O)N[C@H]1CCCN2CC(F)(F)Oc3ccccc3[C@H]3CC[C@H](CC3)OC[C@@H]12` [Compound 41], for which the EC50 in series [1] is over 1 µM.
With `CS(=O)(=O)N[C@H]1CCN2C(=O)COc3c(F)cccc3[C@H]3CC[C@H](CC3)OC[C@@H]12` [Compound 42], the EC50 in series [1] is under 0.1 µM.
Take `CS(=O)(=O)N[C@H]1CCN2C(=O)COc3c(F)cc(F)cc3[C@H]3CC[C@H](CC3)OC[C@@H]12` [Compound 43]: in series [1], the EC50 was under 0.1 µM.
Regarding `CC1(C)CN2CCC[C@H](NS(C)(=O)=O)[C@@H]2CO[C@H]2CC[C@H](CC2)c2ccccc2O1` [Compound 44], the EC50 in series [1] lay within 0.1 to 1 µM.
For `CS(=O)(=O)N[C@H]1CCCN2C(=O)COc3ncccc3[C@H]3CC[C@H](CC3)OC[C@@H]12` [Compound 46], in series [1], the EC50 was under 0.1 µM.
Regarding `CS(=O)(=O)N[C@H]1CCCN2C(=O)COc3ccc(Cl)cc3[C@H]3CC[C@H](CC3)OC[C@@H]12` [Compound 51], the EC50 in series [1] was under 0.1 µM.
With `CS(=O)(=O)N[C@H]1CCCN2C(=O)C(F)(F)Oc3c(F)cc(F)cc3[C@H]3CC[C@H](CC3)OC[C@@H]12` [Compound 52], in series [1], the EC50 is under 0.1 µM.
Take `CS(=O)(=O)N[C@H]1CCN2C(=O)C(F)(F)Oc3ccccc3[C@H]3CC[C@H](CC3)OC[C@@H]12` [Compound 53]: the EC50 in series [1] was under 0.1 µM.
In the case of `CS(=O)(=O)N[C@H]1CCN2C(=O)C(F)(F)Oc3c(F)cc(F)cc3[C@H]3CC[C@H](CC3)OC[C@@H]12` [Compound 54], the EC50 in series [1] was under 0.1 µM.
`CS(=O)(=O)N[C@H]1CCCN2C(=O)COc3nccnc3[C@H]3CC[C@H](CC3)OC[C@@H]12` [Compound 55]: the EC50 in series [1] was under 0.1 µM.
`CS(=O)(=O)N[C@H]1CCCN2C(=O)COc3nnccc3[C@H]3CC[C@H](CC3)OC[C@@H]12` [Compound 56]: the half-maximal effective concentration (EC50) in series [1] fell in the range of 0.1 to 1 µM.
Same read-out and setting: the same measure for `CS(=O)(=O)N[C@H]1CCCN2C(=O)COc3ccc(Br)cc3[C@H]3CC[C@H](CC3)OC[C@@H]12` [Compound 57]: under 0.1 µM; for `CS(=O)(=O)N[C@H]1CCCN2CCOc3c(F)cc(F)cc3[C@H]3CC[C@H](CC3)OC[C@@H]12` [Compound 58]: 0.1 to 1 µM; for `CS(=O)(=O)N[C@H]1CCCN2CC(F)(F)Oc3c(F)cc(F)cc3[C@H]3CC[C@H](CC3)OC[C@@H]12` [Compound 59]: 0.1 to 1 µM.
For the molecule `CS(=O)(=O)N[C@H]1CCCN2CCOc3ccc(Cl)cc3[C@H]3CC[C@H](CC3)OC[C@@H]12` [Compound 61], the EC50 in series [1] was over 1 µM.
As for `CS(=O)(=O)N[C@H]1CCCN2C(=O)COc3ncc(F)cc3[C@H]3CC[C@H](CC3)OC[C@@H]12` [Compound 64], the EC50 in series [1] is under 0.1 µM.
On the same count and under the same terms, the same measure for `CS(=O)(=O)N[C@H]1CCCN2CCOc3ncccc3[C@H]3CC[C@H](CC3)OC[C@@H]12` [Compound 65]: 0.1 to 1 µM.
